In patent US4071411A, “Antitumor antibiotics aclacinomycins A and B [RD-9187A]” (priority 1974, dated 1978):
≈ marks a conversion by molar mass, not a printed value. Entries after “also recorded” stand apart in the source; their conditions may differ.

How the values were obtained:
[1] = system: various animal tumors; experiment: antitumor activity in animal tumors (summary in words); type: in vivo; details: experimental animal tumors
[2] = system: leukemia L1210; experiment: leukemia L1210 in mice (summary in words); type: in vivo
[3] = system: RNA synthesis (L1210 cells); experiment: cells; type: cell-based, mice
[4] = solubility
[5] = system: Gram-positive bacteria and yeasts; experiment: antimicrobial activity (summary in words); type: cell-based
[6] = basicity and lipophilicity
[7] = system: L1210 cells; experiment: cells; type: cell-based, mice; details: 3 days
[8] = system: Rat; experiment: acute toxicity, single injection; type: in vivo; details: rats
[9] = acute toxicity, single injection; type: in vivo, Rat; details: rat, in vivo, single injection
[10] = system: Sar. lutea ATCC 9341; experiment: antimicrobial spectrum, broth dilution method; type: cell-based; details: Micrococcus luteus, ATCC9341; broth dilution; read-out: Minimum Inhibitory Concentration
Description: (§1) 1. The antimicrobial spectrum of aclacinomycins A and B was determined by the broth dilution method as follows: […]

[11] = system: Ps. aeruginosa A20229; experiment: antimicrobial spectrum, broth dilution method; type: cell-based; details: Pseudomonas aeruginosa, A20229; broth dilution; read-out: Minimum Inhibitory Concentration
Description: as §1

[12] = system: Staph. aureus FDA 209P; experiment: antimicrobial spectrum, broth dilution method; type: cell-based; details: Staphylococcus aureus, FDA209P; broth dilution; read-out: Minimum Inhibitory Concentration
Description: as §1

[13] = system: Mic. flavus; experiment: antimicrobial spectrum, broth dilution method; type: cell-based; details: Micrococcus flavus; broth dilution; read-out: Minimum Inhibitory Concentration
Description: as §1

[14] = system: Staph. aureus Smith; experiment: antimicrobial spectrum, broth dilution method; type: cell-based; details: Staphylococcus aureus; broth dilution; read-out: Minimum Inhibitory Concentration
Description: as §1

[15] = system: Can tropicalis IAM 4924; experiment: antimicrobial spectrum, broth dilution method; type: cell-based; details: broth dilution; read-out: Minimum Inhibitory Concentration
Description: as §1

[16] = system: Strept. faecalis; experiment: antimicrobial spectrum, broth dilution method; type: cell-based; details: Enterococcus faecalis; broth dilution; read-out: Minimum Inhibitory Concentration
Description: as §1

[17] = system: St. pyogenes NY 5; experiment: antimicrobial spectrum, broth dilution method; type: cell-based; details: Streptococcus pyogenes, NY5; broth dilution; read-out: Minimum Inhibitory Concentration
Description: as §1

[18] = system: Can. albicans IAM 4905; experiment: antimicrobial spectrum, broth dilution method; type: cell-based; details: Candida albicans, IAM4905; broth dilution; read-out: Minimum Inhibitory Concentration
Description: as §1

[19] = system: B. cereus ATCC 9634; experiment: antimicrobial spectrum, broth dilution method; type: cell-based; details: Bacillus cereus, ATCC9634; broth dilution; read-out: Minimum Inhibitory Concentration
Description: as §1

[20] = system: E. coli K12; experiment: antimicrobial spectrum, broth dilution method; type: cell-based; details: Escherichia coli, K12; broth dilution; read-out: Minimum Inhibitory Concentration
Description: as §1

[21] = system: Mycobact. smegmatis ATCC 607; experiment: antimicrobial spectrum, broth dilution method; type: cell-based; details: broth dilution; read-out: Minimum Inhibitory Concentration
Description: as §1

[22] = system: B. megaterium; experiment: antimicrobial spectrum, broth dilution method; type: cell-based; details: Priestia megaterium; broth dilution; read-out: Minimum Inhibitory Concentration
Description: as §1

[23] = system: Diplo. pneumoniae Type 1; experiment: antimicrobial spectrum, broth dilution method; type: cell-based; details: Streptococcus pneumoniae, TYPE1; broth dilution; read-out: Minimum Inhibitory Concentration
Description: as §1

[24] = system: Diplo. pneumoniae Type 3; experiment: antimicrobial spectrum, broth dilution method; type: cell-based; details: Streptococcus pneumoniae, TYPE3; broth dilution; read-out: Minimum Inhibitory Concentration
Description: as §1

[25] = system: Kl. pneumoniae ATCC 10031; experiment: antimicrobial spectrum, broth dilution method; type: cell-based; details: Klebsiella pneumoniae, ATCC10031; broth dilution; read-out: Minimum Inhibitory Concentration
Description: as §1

[26] = system: Cory. bovis 1810; experiment: antimicrobial spectrum, broth dilution method; type: cell-based; details: Corynebacterium bovis, 1810; broth dilution; read-out: Minimum Inhibitory Concentration
Description: as §1

[27] = system: Bacillus subtilis ATCC 6633; experiment: antimicrobial spectrum, broth dilution method; type: cell-based; details: ATCC6633, broth dilution, read-out: Minimum Inhibitory Concentration
Description: as §1

[28] = system: rabbits; experiment: lethal dose (LD50) on rabbits; type: in vivo
[29] = system: cultured mammalian tumor cells; experiment: growth of tumor cells in culture (summary in words); type: cell-based
[30] = system: P388 cells or L1210 cells; experiment: survival of BDF1 mice inoculated with P388 or L1210 cells; type: in vivo; details: for T/C / 30 day survivors / Mean survival time: daily for 10 days; for 30 day survivors: control 0/8; for Mean survival time: control 10.0
Description: 2. […] For example, when BDF1 mice weighing 18 to 22 grams are inoculated with 1 × 10^6 cells of P388 cells or 5 × 10^5 cells of L1210 cells intraperitoneally and aclacinomycin A and B and aclacinomycin A-DNA complex are administered intraperitoneally once daily for 10 days consecutively 24 hours after the inoculation, the survival time of the mice is prolonged remarkably at the rate of over 150% in a dosage range of 0.5 to 5 mg./kg. of body weight per day compared with control mice receiving no antibiotic, as shown in the following table: […]

[31] = system: Protein synthesis (L1210 cells); experiment: cells; type: cell-based, mice; details: Mus musculus, L1210, 1 h; 14C-precursor incorporation, 37° C., 60 min.; read-out: ID50, Protein synthesis
[32] = system: nucleic acid biosynthesis (L1210 cells); type: cell-based, mice; details: below 1 mcg./ml. in the medium, 60 min.
[33] = system: hamsters; experiment: acute cardiac alterations in the electrocardiograms of hamsters / cardiotoxicity; details: hamster, in vivo
[34] = system: lymphoma 6C3HED; experiment: lymphoma 6C3HED in mice (summary in words); type: in vivo

CCC1(O)CC(OC2CC(N(C)C)C(OC3CC(O)C(OC4CCC(=O)C(C)O4)C(C)O3)C(C)O2)c2c(cc3c(c2O)C(=O)c2c(O)cccc2C3=O)C1C(=O)OC (centres unmarked) [Aclacinomycin A]
antitumor activity (in words) [1]: marked inhibitory effects; also recorded: potent antitumor activity | inhibition of growth of leukemia L1210 [2]: effective in inhibiting the growth | life prolongation, mice inoculated with leukemia L1210 [2]: markedly prolong the lives | inhibition of RNA synthesis (in words) [3]: specific inhibition on RNA synthesis | IC50 ([3]; Mus musculus, L1210, 1 h, 14C-precursor incorporation, 37° C., 60 min., read-out: ID50, RNA synthesis): 0.1 µg/mL (≈ 0.123 µM) | solubility in low polar solvents ([4]; ether, hexane, cyclohexane, petroleum ether as listed): insoluble | solubility in organic solvents ([4]; methanol, ethanol, chloroform, ethyl acetate, acetone etc.): soluble | solubility in water ([4]; water): slightly soluble | antimicrobial activity [5]: effective in preventing the growth; also recorded: strong antimicrobial activity | basicity [6]: weakly basic | IC50 ([7]; Mus musculus, L1210, 72 h, 37° C., read-out: ID50, growth): 0.12 µg/mL (≈ 0.148 µM) | inhibition of cell growth ([7]; below 1 mcg./ml. in the medium): over 50% | lethal dose (LD50), in words [8]: high lethal dose | LD50 ([9]; ip, intraperitoneal): 25 to 50 mg/kg | LD50 ([9]; intravenous): 32.5 mg/kg | MIC [10]: < 0.2 µg/mL | MIC [11]: > 100 µg/mL | MIC [12]: < 0.63 µg/mL | MIC [13]: < 0.2 µg/mL | MIC [14]: < 0.2 µg/mL | MIC [15]: 20 µg/mL (≈ 24.6 µM) | MIC [16]: 2.5 µg/mL (≈ 3.08 µM) | MIC [17]: 1.25 µg/mL (≈ 1.54 µM) | MIC [18]: 10 µg/mL (≈ 12.3 µM) | MIC [19]: < 0.2 µg/mL | MIC [20]: > 100 µg/mL | MIC [21]: 2.5 µg/mL (≈ 3.08 µM) | MIC [22]: < 0.63 µg/mL | MIC [23]: 0.63 µg/mL (≈ 0.776 µM) | MIC [24]: 0.63 µg/mL (≈ 0.776 µM) | MIC [25]: > 100 µg/mL | MIC [26]: < 0.2 µg/mL | MIC [27]: < 0.2 µg/mL | lethal dose (LD50), in words [28]: high lethal dose | inhibition of growth of tumor cells in culture (in words) [29]: remarkable inhibitory effect | T/C ([30]; 0.5 mg./kg./day i.p.): 230% | 30 day survivors ([30]; 0.5 mg./kg./day i.p.): 2/4 | Mean survival time ([30]; 0.5 mg./kg./day i.p.): 23.0 days | T/C ([30]; 1.0 mg./kg./day i.p.): 280% | 30 day survivors ([30]; 1.0 mg./kg./day i.p.): 3/4 | Mean survival time ([30]; 1.0 mg./kg./day i.p.): 28.0 days | T/C ([30]; 2.0 mg./kg./day i.p.): 300% | 30 day survivors ([30]; 2.0 mg./kg./day i.p.): 4/4 | Mean survival time ([30]; 2.0 mg./kg./day i.p.): 30.0 days | T/C ([30]; 4.0 mg./kg./day i.p.): 215% | 30 day survivors ([30]; 4.0 mg./kg./day i.p.): 1/4 | Mean survival time ([30]; 4.0 mg./kg./day i.p.): 21.5 days | survival time prolonged, rate compared with control mice ([30]; dosage range 0.5 to 5 mg./kg. per day, i.p. daily for 10 days): over 150% | IC50 [31]: 6.3 µg/mL (≈ 7.76 µM) | inhibition of nucleic acid biosynthesis [32]: over 50% | cardiotoxicity on hamsters [33]: extremely low cardiotoxicity | inhibition of growth of lymphoma 6C3HED [34]: effective in inhibiting the growth | life prolongation, mice inoculated with lymphoma 6C3HED [34]: markedly prolong the lives
